The melting point is the temperature of the solid-liquid transition. As usually defined, the inhibition is the drop in the measured response relative to a control, in per cent. In general, Vmax refers to the rate approached at saturating substrate. Usually IC50 stands for the midpoint of a concentration-inhibition curve. The low end stands for inhibition by little substance, the high end for a need for much substance.

The values that follow come from article PMC8838460, “Expression, Purification, and Comparative Inhibition of Helicobacter pylori Urease by Regio-Selectively Alkylated Benzimidazole 2-Thione Derivatives” (Molecules, 2022).

Series [1] has as its system Rat. The following applies: TOPKAT structural similar compounds, cited from earlier work.
The subject of series [2] is Rat. The following applies: TOPKAT structural similar compounds; ref CPDB; cited from earlier work.
For a further series, the system named is Mouse. On the set-up: method as in earlier work. Particulars: TOPKAT structural similar compounds; ref CPDB; cited from earlier work.
A further series has as its system fibroblast cells. Nature of the series: In vitro cytotoxicity, neutral red assay on fibroblast cells. Format: cell-based. The following applies: for inhibition at 0.003 µM: Conc. 0.003 µM; for inhibition at 0.007 µM: Conc. 0.007 µM; for inhibition at 0.015 µM: Conc. 0.015 µM; for inhibition at 0.031 µM: Conc. 0.031 µM; for inhibition at 0.064 µM: Conc. 0.064 µM; for inhibition at 0.123 µM: Conc. 0.123 µM; for cytotoxicity (in words): in high concentrations. As to the method: The active compounds were selected and subjected to cytotoxicity evaluation using the neutral red assay. Cytotoxic assays were performed according to Borenfreund and Puerner.

A further series deals with H. pylori Urease (Helicobacter pylori, UniProt P69996). Nature of the series: Urease inhibition assay (indophenol method) on recombinant H. pylori urease. Format: biochemical. The following applies: for Type of inhibition (in words): H. pylori urease; for Vmax: H. pylori urease with inhibitor. As for the experimental part:
(§1) Reaction mixtures comprising 25 μL of urease enzymes solution and 55 μL of sodium phosphate buffers containing 100 mM urea were incubated with 5 μL of tested compounds above (0.5 mM concentration) at 30 °C for 15 min in 96-well plates. Urease activity was determined by measuring the ammonia production using the indophenol method as described by Weatherburn. Briefly, 45 μL of each phenol reagent (1% w/v phenol and 0.005% w/v sodium nitroprussside) and 70 μL of alkali reagent (0.5% w/v NaOH and 0.1% active chloride NaOCl) were added to each well. The absorbance at 630 nm was measured after 50 min using a microplate reader (SPECTRO star Nano, Ortenberg, Germany). All reactions were performed in triplicate in a final volume of 200 μL. The results (change in absorbance per min) were processed by using MARS Data Analysis Version 2.41, software (SPECTRO star Nano, Ortenberg, Germany).
(§2) The assays were performed at pH 6.8. The percentage of inhibitions were calculated from the formula 100 − (ODtest well/ODcontrol) × 100. Thiourea was used as the standard inhibitor of Urease.
(§3) The concentrations of the test compounds that inhibited the hydrolysis of substrates by 50% (IC50) were determined by monitoring the effect of various concentrations of these compounds in the assays on the inhibition values. The IC50 values were then calculated using Graph Pad Prism 6 software.

The target of the next series is T1, J. bean Urease (Canavalia ensiformis, UniProt P07374).
T1 construct: purchased
Nature of the series: Urease inhibition assay (indophenol method) on commercial Jack bean urease. Format: biochemical. Particulars: for Type of inhibition (in words): J. bean urease; for Vmax: J. bean urease with inhibitor. As for the experimental part:
as §1, §2, §3

Read-outs that look alike come from different tables or passages of the source.

Sequence of H. pylori Urease (P69996 whole entry): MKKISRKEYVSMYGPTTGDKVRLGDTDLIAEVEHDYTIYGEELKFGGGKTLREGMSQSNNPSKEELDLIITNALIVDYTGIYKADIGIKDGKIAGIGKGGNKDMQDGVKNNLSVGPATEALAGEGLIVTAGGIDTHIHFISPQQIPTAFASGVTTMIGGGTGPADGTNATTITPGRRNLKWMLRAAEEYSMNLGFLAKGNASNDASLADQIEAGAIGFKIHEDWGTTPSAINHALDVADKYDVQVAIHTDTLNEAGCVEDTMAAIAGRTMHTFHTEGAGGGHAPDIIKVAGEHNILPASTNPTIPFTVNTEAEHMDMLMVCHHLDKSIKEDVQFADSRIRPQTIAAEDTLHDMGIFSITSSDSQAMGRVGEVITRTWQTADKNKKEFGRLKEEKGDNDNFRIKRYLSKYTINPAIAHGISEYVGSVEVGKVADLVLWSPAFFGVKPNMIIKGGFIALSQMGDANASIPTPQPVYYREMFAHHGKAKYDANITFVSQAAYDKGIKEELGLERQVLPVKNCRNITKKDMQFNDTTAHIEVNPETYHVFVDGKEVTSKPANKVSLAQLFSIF
Sequence of H. pylori Urease (P14916 whole entry, further chain): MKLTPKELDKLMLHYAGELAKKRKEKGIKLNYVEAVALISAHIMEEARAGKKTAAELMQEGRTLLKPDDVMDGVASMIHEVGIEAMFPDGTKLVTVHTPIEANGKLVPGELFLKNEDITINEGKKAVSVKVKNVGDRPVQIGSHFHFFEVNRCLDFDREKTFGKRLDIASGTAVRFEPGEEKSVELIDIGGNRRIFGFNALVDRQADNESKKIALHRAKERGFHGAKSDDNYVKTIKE
T1 sequence (P07374 whole entry, looked up): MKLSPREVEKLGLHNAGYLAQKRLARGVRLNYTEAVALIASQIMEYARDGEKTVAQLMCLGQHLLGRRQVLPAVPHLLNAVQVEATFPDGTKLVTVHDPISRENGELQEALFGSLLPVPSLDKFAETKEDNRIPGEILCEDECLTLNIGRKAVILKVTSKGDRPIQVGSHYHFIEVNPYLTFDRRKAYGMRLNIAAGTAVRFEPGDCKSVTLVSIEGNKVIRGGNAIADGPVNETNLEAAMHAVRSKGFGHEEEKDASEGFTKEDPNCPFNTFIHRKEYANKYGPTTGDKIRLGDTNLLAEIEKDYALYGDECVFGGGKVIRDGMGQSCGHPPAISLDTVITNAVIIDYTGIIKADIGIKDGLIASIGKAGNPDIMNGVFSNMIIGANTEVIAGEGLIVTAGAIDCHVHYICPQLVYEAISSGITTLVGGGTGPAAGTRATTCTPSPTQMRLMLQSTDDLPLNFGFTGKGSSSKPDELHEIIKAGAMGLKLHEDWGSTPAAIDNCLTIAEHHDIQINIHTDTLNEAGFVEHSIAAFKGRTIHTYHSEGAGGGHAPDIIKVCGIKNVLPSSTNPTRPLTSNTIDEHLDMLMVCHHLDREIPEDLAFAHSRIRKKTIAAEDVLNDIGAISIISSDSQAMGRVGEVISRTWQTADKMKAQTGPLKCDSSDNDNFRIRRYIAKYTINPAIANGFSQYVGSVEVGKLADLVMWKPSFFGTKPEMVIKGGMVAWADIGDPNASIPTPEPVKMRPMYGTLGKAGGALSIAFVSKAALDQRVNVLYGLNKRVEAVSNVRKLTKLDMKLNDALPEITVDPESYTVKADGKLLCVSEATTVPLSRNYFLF

Regarding `CCOCSc1nc2ccccc2n1COCC`, the melting point came out at 108 °C. Same read-out and setting: the figure for `N#CCSc1nc2ccccc2n1CC#N` is 161 to 163 °C. Molecule `OCCCSc1nc2ccccc2[nH]1` came in with a melting point of 119 °C.

`CC(O)CSc1nc2ccccc2[nH]1` (stereo not drawn) returned a melting point of 250 °C.

As to `CCCCCCCCCCCSc1nc2ccccc2[nH]1`, the melting point came to 104 °C. `CCOC(CSc1nc2ccccc2[nH]1)OCC` had a melting point of 80 °C. The molecule `CCCCSc1nc2ccccc2[nH]1` returned a melting point of 145 °C. On the same count and under the same terms, the figure for `c1ccc2[nH]c(SCC3CO3)nc2c1` (stereo not drawn) is 211 °C.

On to `NC(=O)Nc1ccccc1`, for which the “Actual Endpoint (-log C), Rat Oral LD50” value in the series on Rat [1] (ref IIFBA4 12;195;69) is given as 1.833 -log C. Regarding `CC(O)CN` (stereo not drawn) [1-AMINO-2-PROPANOL], the “Actual Endpoint (-log C), Rat Oral LD50” value in the series with Rat [1] (ref JACTDZ 6(1);53;87) is recorded as 1.554 -log C.

Consider `NC(=S)Nc1ccccc1` [1-PHENYL-2-THIOUREA], for which the “Actual Endpoint (-log C), Rat Oral LD50” value in the series on Rat [1] (ref JMPCAS 4;109;61) is 4.705 -log C. For `Sc1nc2ccccc2s1` [2-Mercaptobenzothiazole], the “Actual Endpoint (-log C), Carcinogenic Potency TD50 Rat” value with Rat [2] is listed as 2.687 -log C. Turning to `CC(N)=O` [Acetamide], the “Actual Endpoint (-log C), Carcinogenic Potency TD50 Rat” value in the series with Rat [2] was 2.516 -log C. Further, the “Actual Endpoint (-log C), Carcinogenic Potency TD50 Mouse” value in the series with Mouse was 1.293 -log C. `CC(=O)Nc1ccc(O)cc1` [Acetaminophen, reference compound]: in the series with Rat [2], the “Actual Endpoint (-log C), Carcinogenic Potency TD50 Rat” value is 2.485 -log C. Turning to `Oc1ccccc1O` [Catechol], in the series on Mouse, the “Actual Endpoint (-log C), Carcinogenic Potency TD50 Mouse” value is listed as 2.654 -log C. Take `CC(C)(Oc1ccc(C2CC2(Cl)Cl)cc1)C(=O)O` (stereo not drawn) [Ciprofibrate, reference compound]: in the series with Mouse, the “Actual Endpoint (-log C), Carcinogenic Potency TD50 Mouse” value was 4.669 -log C. Turning to `Sc1nc2ccccc2[nH]1` [Compound 2, 1H-Benzimidazole-2(3H)-thione], in the series on fibroblast cells (Fibroblast), the inhibition at 0.009 µM worked out at 20%. For the same molecule, in the series on fibroblast cells (fibroblast cells), the inhibition at 0.003 µM is 40.4%, the inhibition at 0.007 µM was 44%, the inhibition at 0.015 µM amounted to 49.4% and the inhibition at 0.031 µM worked out at 49.5%. Moreover, in the series with fibroblast cells (fibroblast cells), the inhibition at 0.064 µM turned out to be 80.6%, the inhibition at 0.123 µM came out at 82.5% and the “cytotoxicity (in words)” value was “not cytotoxic”. In addition, at H. pylori Urease, the “Type of inhibition (in words)” value is given as “non-competitive” and the Vmax is given as 1.54 ± 0.057 µmol/min. At J. bean Urease, the IC50 was 260 ± 8 µM, the “Type of inhibition (in words)” value is “non-competitive” and the Vmax was found to be 1.53 ± 0.005 µmol/min.

Take `CCOCn1c(=S)[nH]c2ccccc21` [Compound 5, 1-(Ethoxymethyl)-1H-benzo[d]imidazole-2(3H)-thione]: in the series with fibroblast cells (fibroblast cells), the inhibition at 0.003 µM is -28.8%, the inhibition at 0.007 µM is -15.9%, the inhibition at 0.015 µM was found to be 4.6% and the inhibition at 0.031 µM was 26.2%. In the series with fibroblast cells (fibroblast cells), the inhibition at 0.064 µM stood at 52.1%, the inhibition at 0.123 µM was 53.5% and the “cytotoxicity (in words)” value is “not cytotoxic”. For the same molecule, in the series with fibroblast cells (fibroblast cells, Conc. 0.009 µM, read-out: % Inhibition), the inhibition at 0.009 µM is -61.2%. Besides, at H. pylori Urease, the “Type of inhibition (in words)” value is “uncompetitive” and the maximal velocity (Vmax) is on record as 1.52 ± 0.024 µmol/min. Also, at J. bean Urease, it took 290 ± 18 µM to reach half-maximal inhibition (IC50), the “Type of inhibition (in words)” value was “non-competitive” and the Vmax is reported as 1.60 ± 0.04 µmol/min. With `O=c1ccc(=O)[nH][nH]1` [MALEIC HYDRAZIDE], the “Actual Endpoint (-log C), Rat Oral LD50” value with Rat [1] (ref WRPCA2 9;119;70) is reported as 1.47 -log C. Regarding `CNN` [METHYLHYDRAZINE], the “Actual Endpoint (-log C), Rat Oral LD50” value in the series on Rat [1] (ref XAWPA2 CWL) is 3.158 -log C. As to `CC(=O)NN` [Monoacetyl hydrazine], the “Actual Endpoint (-log C), Carcinogenic Potency TD50 Mouse” value in the series on Mouse was 3.876 -log C.

As for `CCOc1ccc(NC(C)=O)cc1` [Phenacetin, reference compound], in the series on Rat [2], the “Actual Endpoint (-log C), Carcinogenic Potency TD50 Rat” value is 2.156 -log C. For the molecule `S=C1NCCC(COc2ccccc2)O1` (stereo not drawn) [TIFEMOXONE, reference compound], the “Actual Endpoint (-log C), Rat Oral LD50” value with Rat [1] (ref ATSUDG 1;229;78) was 2.006 -log C. As for `CC(=N)S` [Thioacetamide], in the series on Rat [2], the “Actual Endpoint (-log C), Carcinogenic Potency TD50 Rat” value is given as 3.815 -log C. As to `Cc1cccc(NC(N)=O)c1` [m-TOLYLUREA], the “Actual Endpoint (-log C), Rat Oral LD50” value with Rat [1] (ref IIFBA4 12;195;69) is listed as 2.053 -log C.

Consider `CCOc1ccccc1C(N)=O` [o-Ethoxybenzamide], for which the “Actual Endpoint (-log C), Carcinogenic Potency TD50 Mouse” value in the series with Mouse is recorded as 2.508 -log C. For the molecule `O=Nc1ccc(Nc2ccccc2)cc1` [p-Nitrosodiphenylamine], the “Actual Endpoint (-log C), Carcinogenic Potency TD50 Rat” value in the series on Rat [2] is reported as 2.994 -log C. On to `Cc1ccc(NC(N)=O)cc1` [p-Tolylurea], for which the “Actual Endpoint (-log C), Carcinogenic Potency TD50 Mouse” value with Mouse is 2.863 -log C.

For Methylhydrazine s, in the series on Mouse, the “Actual Endpoint (-log C), Carcinogenic Potency TD50 Mouse” value is 3.785 -log C.
